These results are taken from patent US20170368181A1, “Polymeric Nanoparticle” (The Provost Fellows and Scholars of the College of the Holy …, priority 2010, published 2017).

For data set [1] the following is noted: 20° C.; cited from earlier work.
Data set [2] concerns MMP 13. Kind of data set: IL-1β-induced MMP 13 mRNA in SW1353 cells, qRT-PCR. In kind it is cell-based, human. Here is the method:
(§1) Cell assay: SW1353 human chondrocytes (ATCC) were maintained in RPMI 1640 medium supplemented with 10% Foetal Calf Serum, L-Glutamine and 1% antibiotics. SW1353 cells were seeded 2.5×10^5 cells per well into 6-well plates. After 24 hours media was replaced with serum free media (SFM) and incubated over night. sCT (10 μM) with either PGE2(1 μM) or IL-1β (10 ng/ml) were added to cells in SFM for 1 hour. Dexamethasone (Dex, 10 μM) was the positive control for the down-regulation of NR4A2. Untreated controls were treated in an identical manner, but with serum-free medium alone. RNA was isolated from SW1353 cells.
Mix to be added to each reaction tube is 4 μL of 5× 1st Strand Buffer, 2 μL of 0.1 M DTT, 1 μL of RNase Out and 1 μL MMLV. Taq Cat# 10342-020 (this contains 0.1 M DTT, 5× 1st S. B.). NR4A and MMP1, 3, 9 and 13 levels were measured by qRT-PCR and expression levels were normalized to GAPDH levels.
Effects of sCT and the nanoparticle on MMP mRNA levels were also investigated. […] Both sCT, HA, and the polymeric nanoparticle down regulated MMP 13 by 47%, 31% and 88% (FIG. 6B). MMPs 1 and 3 were also down regulated. […] Dexamethasone, which is known to down regulate NR4A2 and is used for the treatment of rheumatoid arthritis, was used as a positive control in all experiments. […]
For orientation: Real-time PCR tracks product formation cycle by cycle.

The test system of data set [3] is NR4A2 mRNA. Kind of data set: PGE2-induced NR4A2 mRNA in SW1353 cells, qRT-PCR. The following applies: PGE2 1 μM, 1 hour. Format: cell-based, human. Here is the method:
as §1
RNA Extraction: Media was removed from the cells and 1 mL of TRIzol® (Invitrogen) was added to each well. Cells were homogenised by pipetting the added TRIzol® up and down for 8-10 times. […] Pellet was then resuspended in an appropriate volume of RNASE/DNASE free water and RNA in each sample was quantified at A260. […]
Mix to be added to each reaction tube is 4 μL of 5× 1st Strand Buffer, 2 μL of 0.1 M DTT, 1 μL of RNase Out and 1 μL MMLV. […] NR4A and MMP1, 3, 9 and 13 levels were measured by qRT-PCR and expression levels were normalized to GAPDH levels.
SW1353 cells were treated with sCT alone or polymeric nanoparticles comprising hyaluronic acid, chitosan, and sCT and PGE2 for 1 hour. Total RNA was extracted and assayed for NR4A2 mRNA levels by quantitative RT-PCR. […]

The subject of data set [4] is NR4A2. Briefly: NR4A2 expression in ankle joints of K/BxN sera-induced mice. In kind it is in vivo, mouse. As to conditions: intra-peritoneal delivery. The text has this:
On day 4 after K/BxN serum transfer, mice were sacrificed, and their hind paws above the knee joint were harvested for histology to assess the effects of drug treatments on inflammation and bone and cartilage degradation. The histology sections were stained with hematoxylin and eosin (H&E) and Saffarin O and scored blindly under 3 different categories (i) inflammation (synovitis infiltration and pannus formation), (ii) cartilage erosion and (iii) bone erosion. RNA was also isolated from both the ankle joint and knee joint tissue to measure expression of NR4A biomarkers.
RNA was isolated from the ankle joints of control and ‘inflamed’ K/BxN mice to measure expression of NR4A biomarkers. In K/BxN sera-induced mice with no treatment (therefore showing inflammation), high levels of NR4A1, NR4A2 and NR4A3 were over expressed, compared to naïve mice with no serum transfer (no inflammation (FIG. 20).
Expression of NR4A2 was measured in all groups (FIG. 21). […] Histological sections of the knee joint were scored by an observer blinded to the treatment under 3 different criteria (i) inflammation (synovitis infiltration and pannus formation), (ii) cartilage erosion and (iii) bone erosion on a scale of 0-3 (0, none; 1, minimal invasion of meniscus; 2, partial invasion of meniscus; 3, severe invasion of meniscus). […]

Consider salmon calcitonin [sCT], for which the water solubility result in data set [1] is given as “about 1 mg/ml”. In data set [2], the “down regulation of MMP 13 mRNA” value came out at 47%. For the same substance, the “inhibition of PGE2 induced NR4A2 transcript levels” value in data set [3] was determined as 49%. Moreover, the “NR4A2 expression in the ankle joints” value in data set [4] was “reduce NR4A2 expression”.
